From patent US20230181491A1, “COMPOSITIONS AND METHODS FOR THE TREATMENT AND MANAGEMENT OF INFLAMMATION USING HYDROXYNORKETAMINE” (SPIRIFY PHARMA INC., priority 2020, published 2023)
Where a name gives a salt, the structure may show the parent alone. Read-outs that look alike come from different tables or passages of the source.

How the values were obtained:
[1] = test system: LPS-induced human primary monocytes; assay: Release of cytokines (IL-6, TNF-α, IL-8, IL-1β) and PGE2 from LPS-induced human primary monocytes (ELISA, normalized to LPS = 100%); format: cell-based; settings: for effect on secretion of all proinflammatory cytokines tested (IL-6, IL-1β, TNF-α, IL-8): 0.1 μM-250 μM; for inhibition at 50 µM / inhibition at 250 µM: Homo sapiens, Monocyte
[2] = test system: human primary monocytes; assay: Viability of human primary monocytes (Alamar Blue); settings: 50 μM and 250 μM; for viability of human primary monocytes: then 24 h LPS
Procedure: Viability of human primary monocytes—viable human primary monocyte cells were counted using Alamar Blue. Treatment with toxic amounts of sodium fluoride (NaF at 250 μg/ml) was used as control.
To this end, human primary monocytes were incubated for 24 hours and 48 hours with (R,S)-ketamine, (2R,6R)-hydroxynorketamine, (R,S)-norketamine, and (R,S)-dehydronorketamine at concentrations of 50 μM and 250 μM. LPS alone and treatment with dexamethasone (1 μM) were used as controls. Monocyte cells' viability was measured using Alamar blue to evaluate toxicity of the agents.

[3] = test system: rats; settings: cited from earlier work
[4] = test system: rodents; settings: cited from earlier work
[5] = test system: COVID-19 patients; settings: cited from earlier work
[6] = test system: radical prostatectomy patients; settings: cited from earlier work
[7] = 50 μM and 250 μM, 24 h pre-treatment, then 24 h LPS
[8] = 50 μM and 250 μM, 48 h pre-treatment, then 24 h LPS
[9] = 30 min pre-treatment, then 24 h LPS
[10] = 50 μM, 48 h pre-treatment, then 24 h LPS
[11] = 250 μM, 30 min pre-treatment, then 24 h LPS, read-out: inhibition of LPS-induced IL-1β release
[12] = 250 μM, 30 min pre-treatment, then 24 h LPS, read-out: inhibition of LPS-induced IL-6 release
[13] = 250 μM, 30 min pre-treatment, then 24 h LPS, read-out: inhibition of LPS-induced IL-8 release
[14] = 250 μM, 30 min pre-treatment, then 24 h LPS, read-out: inhibition of LPS-induced TNF-α release
[15] = 250 μM, 24 h pre-treatment, then 24 h LPS, read-out: inhibition of LPS-induced IL-6 release
[16] = 250 μM, 24 h pre-treatment, then 24 h LPS, read-out: inhibition of LPS-induced TNF-α release
[17] = 250 μM, 48 h pre-treatment, then 24 h LPS, read-out: inhibition of LPS-induced TNF-α release
[18] = 250 μM, 30 min pre-treatment, then 24 h LPS
[19] = 250 μM, 24 h pre-treatment, then 24 h LPS

Compound	effect on IL-6 secretion [1, 7]	effect on LPS-induced IL-8 release [1, 7]	effect on PGE2 secretion [1, 7]	effect on TNF-α secretion [1, 7]	effect on IL-6 secretion [1, 8]	effect on PGE2 secretion [1, 8]	effect on TNF-α secretion [1, 8]	anesthetic effects [3]	effect on secretion of all proinflammatory cytokines tested (IL-6, IL-1β, TNF-α, IL-8) [1, 9]	also measured
NC1(c2ccccc2Cl)CCC=CC1=O (racemic) [(R,S)-dehydronorketamine]	dramatically reduced all cytokines release	dramatically reduced all cytokines release	dramatically reduced	dramatically reduced all cytokines release	dramatically reduced all cytokines release	dramatically reduced	dramatically reduced all cytokines release			effect on LPS-mediated IL-8 release [1, 8]: dramatically reduced all cytokines release; viability of human primary monocytes ([2]; 24 h pre-treatment): highly toxic to the cells; viability of human primary monocytes ([2]; 48 h pre-treatment): induced a massive cells' mortality
CNC1(c2ccccc2Cl)CCCCC1=O (racemic) [(R,S)-ketamine hydrochloride]	inhibition in the secretion	without affecting IL-8	inhibition in the secretion	inhibition in the secretion	inhibition of TNF-α, IL-6, and PGE2 secretion	inhibition of TNF-α, IL-6, and PGE2 secretion	inhibition of TNF-α, IL-6, and PGE2 secretion	produced anesthetic actions	potent inhibitory effect	inhibition at 50 µM [1, 10]: ~40%; inhibition at 250 µM [1, 11]: 30 to 60%; inhibition at 250 µM [1, 12]: 30 to 60%; inhibition at 250 µM [1, 13]: 30 to 60%; inhibition at 250 µM [1, 14]: 30 to 60%; inhibition at 250 µM [1, 15]: ~30%; inhibition at 250 µM [1, 16]: ~70%; inhibition at 250 µM [1, 17]: ~75%
NC1(c2ccccc2Cl)CCCCC1=O (racemic) [(R,S)-norketamine]	remained without any significant change	remained without any significant change	promoted the secretion of PGE2	inhibited the secretion of TNF-α only at the higher dose tested	inhibited the secretion of TNF-α and IL-6	promoted the secretion of the proinflammatory agent PGE2 at 250 μM	inhibited the secretion of TNF-α and IL-6	produced anesthetic actions		
N[C@@]1(c2ccccc2Cl)CCC[C@@H](O)C1=O [(2R,6R)-2-amino-2-(2-chlorophenyl)-6-hydroxycyclohexanone]	inhibition in the secretion	not affected	inhibition in the secretion	inhibition in the secretion	inhibition of TNF-α, IL-6, and PGE2 secretion	inhibition of TNF-α, IL-6, and PGE2 secretion	inhibition of TNF-α, IL-6, and PGE2 secretion		cytokines release decrease in a dose dependent manner	antidepressant-relevant behavioral responses [4]: exert antidepressant-relevant behavioral responses; inhibition at 50 µM [1, 10]: ~20%; inhibition at 250 µM [1, 11]: ~20%; inhibition at 250 µM [1, 12]: ~20%; inhibition at 250 µM [1, 13]: ~20%; inhibition at 250 µM [1, 14]: ~30%; inhibition at 250 µM [1, 15]: ~35%; inhibition at 250 µM [1, 16]: ~40%; inhibition at 250 µM [1, 17]: ~55%; safety to monocytes (viability), overall conclusion ([2]; 24 h and 48 h pre-treatment): monocytes safety
N[C@]1(c2ccccc2Cl)CCC[C@H](O)C1=O [(2S,6S)-hydroxynorketamine hydrochloride, (2S,65)-2-amino-2-(2-chlorophenyl)-6-hydroxycyclohexanone]		not affected							cytokines release decrease in a dose dependent manner	antidepressant-relevant behavioral responses [4]: exert antidepressant-relevant behavioral responses; inhibition of LPS-induced TNF-α release [1, 10]: approx. 30%; inhibition of LPS-induced IL-1β release [1, 18]: ~20%; inhibition of LPS-induced IL-6 release [1, 18]: ~20%; inhibition of LPS-induced IL-8 release [1, 18]: ~20%; inhibition of LPS-induced TNF-α release [1, 18]: approx. 30%; inhibition of LPS-induced IL-6 release [1, 19]: about 10%; inhibition of LPS-induced TNF-α release [1, 19]: approx. 30%; inhibition of LPS-induced TNF-α release ([1]; 250 μM, 48 h pre-treatment, then 24 h LPS): approx. 40%
Cc1ccc(-c2cc(C(F)(F)F)nn2-c2ccc(S(N)(=O)=O)cc2)cc1 [Celebrex]										PGE2 levels [5]: significantly reduced
C[C@@H]1C[C@H]2[C@@H]3CCC4=CC(=O)C=C[C@]4(C)[C@@]3(F)[C@@H](O)C[C@]2(C)[C@@]1(O)C(=O)CO [Dexamethasone, dexamethasone]										reduction of cytokines release ([1]; 10 μM, control, 30 min pre-treatment study (not shown)): about 60%
CN[C@]1(c2ccccc2Cl)CCCCC1=O [S-ketamine, (S)-ketamine]										surgery-associated increase in IL-6 [6]: attenuates; surgery-associated increase in TNF [6]: attenuates
(2R,6R;2S,6S)-HNK								no anesthetic or hyperlocomotor effects		
